The values below come from patent EP0908457B1, “3-(1,2-benzisothiazol- and isoxazol-5-Y1)-2,4(1H,3H)-pyrimidinedione or thione and 3-(1,2-benzisothiazol- and isoxazol-5-y1)-4(3H)-pyrimidinone or thione herbicidal agents” (BASF AKTIENGESELLSCHAFT, priority 1997, dated 1999).

Holding throughout (format): in vivo
For one assay, the system named is Cyperus iria. The assay can be described thus: Preemergence weed control under flooded paddy conditions, CYPIR (Rice Flatsedge). As to herbicidal effect rating, CYPIR: meaning of each grade not given here. Particulars: flooded paddy; for herbicidal effect rating, CYPIR: rated three to four weeks after treatment; for CYPIR: herbicidal effect rating 0-9, three to four weeks after treatment.
Assay [1] concerns Monochoria vaginalis, Presl. The assay can be described thus: Preemergence weed control under flooded paddy conditions, MOOVA (Monochoria). As to herbicidal effect rating, MOOVA: meaning of each grade not given here. Particulars: flooded paddy; for herbicidal effect rating, MOOVA: rated three to four weeks after treatment; for MOOVA: herbicidal effect rating 0-9, three to four weeks after treatment.
In assay [2] the test system is Cyperus serotinus, Rottb. The assay can be described thus: Preemergence weed control under flooded paddy conditions, CYPSE (Flatsedge). As to herbicidal effect rating, CYPSE: meaning of each grade not given here. Particulars: for herbicidal effect rating, CYPSE: rated three to four weeks after treatment.
Another assay relates to Sagittaria pygmaea, L. The assay can be described thus: Preemergence weed control under flooded paddy conditions, SAGPY (Arrowhead (Pygmaea)). As to herbicidal effect rating, SAGPY: meaning of each grade not given here. The following applies: flooded paddy; for herbicidal effect rating, SAGPY: rated three to four weeks after treatment; for SAGPY: herbicidal effect rating 0-9, three to four weeks after treatment.
Assay [3] deals with Echinochloa oryzoides (Ard.) Fritsch. Briefly: Preemergence weed control under flooded paddy conditions, ECHORC (Watergrass (Calif.)). As to herbicidal effect rating, ECHORC: meaning of each grade not given here. Particulars: flooded paddy; for herbicidal effect rating, ECHORC: rated three to four weeks after treatment; for ECHORC: herbicidal effect rating 0-9, three to four weeks after treatment.
[4] abbreviates: 0.0313 kg/ha, preemergence weeds.
The mark [5] stands for this setting: 0.0625 kg/ha, preemergence weeds.
The mark [6] stands for this setting: 0.1250 kg/ha, preemergence weeds.
[7] abbreviates: 0.2500 kg/ha, preemergence weeds.
[8] abbreviates: Rate 0.0320 kg/ha, preemergence.
The mark [9] stands for this setting: Rate 0.0620 kg/ha, preemergence.
[10] abbreviates: Rate 0.1250 kg/ha, preemergence.
[11] abbreviates: Rate 0.2500 kg/ha, preemergence.
Setting [12] is: 0.0320 kg/ha, preemergence weeds.
Setting [13] is: 0.0620 kg/ha, preemergence weeds.

Each structure is given as a SMILES string.

On to `COC(=O)C=CCOc1ccc(C)cc1-c1nsc2ccc(-n3c(=O)cc(C(F)(F)F)n(C)c3=O)cc12` [Example 188, Methyl 4-{{2-{5-[3,6-dihydro-3-methyl-2,6-dioxo-4-(trifluoromethyl)-1(2H)-pyrimidinyl]-1,2-benzisothiazol-3-yl}-p-tolyl}oxy}-2-butenoate, (E)- and (Z)-], for which the “herbicidal effect rating, CYPIR” value in the assay on Cyperus iria (setting [4]), in the assay with Cyperus iria (setting [5]), with Cyperus iria (setting [6]) and with Cyperus iria (setting [7]) was 0.0 in each case. For the same compound, the “herbicidal effect rating, MOOVA” value in assay [1] (setting [4]), in assay [1] (setting [5]), in assay [1] (setting [6]) and in assay [1] (setting [7]) was 9.0 in each case. In addition, the “herbicidal effect rating, CYPSE” value in assay [2] (setting [4]) came out at 0.0. Moreover, the “herbicidal effect rating, SAGPY” value with Sagittaria pygmaea, L. (setting [4]) stood at 0.0; in the assay with Sagittaria pygmaea, L. (setting [5]) it was 0.0; in the assay with Sagittaria pygmaea, L. (setting [6]), 0.0; in the assay on Sagittaria pygmaea, L. (setting [7]) it was 0.0. Also, the “herbicidal effect rating, ECHORC” value amounted to 0.0 in assay [3] (setting [4]), 0.0 in assay [3] (setting [5]), 2.0 in assay [3] (setting [6]) and 8.0 in assay [3] (setting [7]).
Take `COc1ccc(COC(=O)C(C)(C)c2nsc3ccc(-n4c(=O)cc(C(F)(F)F)n(C)c4=O)cc23)cc1` [Example 397, 1,2-Benzisothiazole-3-acetic acid, 5-[3,6-dihydro-3-methyl-2,6-dioxo-4-(trifluoromethyl)-1(2H)-pyrimidinyl]-alpha,alpha-dimethyl-, p-methoxybenzyl ester]: the “herbicidal effect rating, CYPIR” value came out at 6.0 in the assay with Cyperus iria (setting [8]), 7.0 with Cyperus iria (setting [9]), 9.0 with Cyperus iria (setting [10]) and 9.0 with Cyperus iria (setting [11]). For the same compound, the “herbicidal effect rating, MOOVA” value in assay [1] (setting [8]), in assay [1] (setting [9]), in assay [1] (setting [10]) and in assay [1] (setting [11]) was 9.0 each time. In addition, the “herbicidal effect rating, CYPSE” value in assay [2] (setting [8]), in assay [2] (setting [10]) and in assay [2] (setting [11]) was 0.0 in each case. Besides, the “herbicidal effect rating, SAGPY” value came out at 4.0 in the assay on Sagittaria pygmaea, L. (setting [8]); 5.0 in the assay with Sagittaria pygmaea, L. (setting [9]); 5.0 in the assay with Sagittaria pygmaea, L. (setting [10]); 5.0 in the assay with Sagittaria pygmaea, L. (setting [11]). Moreover, the “herbicidal effect rating, ECHORC” value in assay [3] (setting [8]), in assay [3] (setting [9]), in assay [3] (setting [10]) and in assay [3] (setting [11]) was 9.0 throughout.
For `Cn1c(C(F)(F)F)cc(=O)n(-c2ccc3snc(CSc4ccccc4)c3c2)c1=O` [Example 392, 2,4(1H,3H)-Pyrimidinedione, 1-methyl-3-{3-[(phenylthio)methyl]-1,2-benzisothiazol-5-yl}-6-(trifluoromethyl)-], the “herbicidal effect rating, CYPIR” value turned out to be 0.0 in the assay on Cyperus iria (setting [8]), 0.0 in the assay on Cyperus iria (setting [9]), 3.0 with Cyperus iria (setting [10]) and 7.0 with Cyperus iria (setting [11]). The “herbicidal effect rating, MOOVA” value in assay [1] (setting [8]) was found to be 6.0; in assay [1] (setting [9]) it was 7.0; in assay [1] (setting [10]), 7.0; in assay [1] (setting [11]) it was 9.0. Further, the “herbicidal effect rating, CYPSE” value in assay [2] (setting [8]), in assay [2] (setting [9]), in assay [2] (setting [10]) and in assay [2] (setting [11]) was 0.0 throughout. In addition, the “herbicidal effect rating, SAGPY” value in the assay on Sagittaria pygmaea, L. (setting [8]) was found to be 0.0; in the assay on Sagittaria pygmaea, L. (setting [9]), 0.0; with Sagittaria pygmaea, L. (setting [10]) it was 0.0; with Sagittaria pygmaea, L. (setting [11]), 0.0. Further, the “herbicidal effect rating, ECHORC” value worked out at 5.0 in assay [3] (setting [8]), 7.0 in assay [3] (setting [9]), 9.0 in assay [3] (setting [10]) and 9.0 in assay [3] (setting [11]).
As to `COc1ccc(CC(=O)OCc2nsc3ccc(-n4c(=O)cc(C(F)(F)F)n(C)c4=O)cc23)cc1` [Example 450, 2,4(1H,3H)-Pyrimidinedione, 3-[3-(hydroxymethyl)-1,2-benzisothiazol-5-yl]-1-methyl-6-(trifluoromethyl)-, (p-methoxyphenyl)acetate (ester)], the CYPIR with Cyperus iria (setting [12]) worked out at 6.0; with Cyperus iria (setting [13]) it was 7.0; with Cyperus iria (setting [6]) it was 9.0; with Cyperus iria (setting [7]) it was 9.0. Further, the MOOVA in assay [1] (setting [12]) came out at 7.0; in assay [1] (setting [13]), 7.0; in assay [1] (setting [6]), 9.0; in assay [1] (setting [7]), 9.0. Moreover, the CYPSE in assay [2] (0.0320 kg/ha, preemergence weeds, herbicidal effect rating 0-9, three to four weeks after treatment) was 0.0. Also, the SAGPY is given as 5.0 with Sagittaria pygmaea, L. (setting [12]); 5.0 in the assay on Sagittaria pygmaea, L. (setting [13]); 6.0 in the assay on Sagittaria pygmaea, L. (setting [6]); 9.0 in the assay with Sagittaria pygmaea, L. (setting [7]). Besides, the ECHORC in assay [3] (setting [12]) came out at 0.0; in assay [3] (setting [13]) it was 2.0; in assay [3] (setting [6]) it was 6.0; in assay [3] (setting [7]), 9.0.
Take `C=CCONC(=O)c1nsc2ccc(-n3c(=O)cc(C(F)(F)F)n(C)c3=O)cc12` [Example 399, 1,2-Benzisothiazole-3-carboxamide, N-(allyloxy)-5-[3,6-dihydro-3-methyl-2,6-dioxo-4-(trifluoromethyl)-1(2H)-pyrimidinyl]-]: the “herbicidal effect rating, CYPIR” value with Cyperus iria (setting [8]) is given as 0.0; in the assay on Cyperus iria (setting [9]), 2.0; in the assay with Cyperus iria (setting [10]), 7.0; in the assay with Cyperus iria (setting [11]), 8.0. Also, the “herbicidal effect rating, MOOVA” value in assay [1] (setting [8]) came out at 6.0; in assay [1] (setting [9]), 7.0; in assay [1] (setting [10]) it was 8.0; in assay [1] (setting [11]), 9.0. Besides, the “herbicidal effect rating, CYPSE” value in assay [2] (setting [8]), in assay [2] (setting [9]), in assay [2] (setting [10]) and in assay [2] (setting [11]) was 0.0 in each case. The “herbicidal effect rating, SAGPY” value in the assay on Sagittaria pygmaea, L. (setting [8]) is listed as 0.0; in the assay on Sagittaria pygmaea, L. (setting [9]) it was 0.0; with Sagittaria pygmaea, L. (setting [10]), 0.0; with Sagittaria pygmaea, L. (setting [11]), 0.0. Besides, the “herbicidal effect rating, ECHORC” value in assay [3] (setting [8]) was 0.0; in assay [3] (setting [9]) it was 0.0; in assay [3] (setting [10]), 2.0; in assay [3] (setting [11]) it was 3.0.
